Reference: ChEMBL document CHEMBL1201862, “PubChem BioAssay data set” (2004)
Active and inactive are the calls of the source.

Tests used:
[1] = target: T1, Fatty acid synthase (Homo sapiens, UniProt P49327); test: FAS thioesterase domain inhibitors, dose response, biochemical, endpoint fluorescence intensity, uHTS hits (AID 624327); assay type: functional;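 also: fluorescence from hydrolysis of an O-methyl fluorescein acyl ester substrate by the enzyme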
[2] = target: T1, Fatty acid synthase; test: FAS thioesterase domain inhibitors, dose response, biochemical, kinetic fluorescence intensity (AID 624326); assay type: functional;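 also: rate of fluorescence rise from hydrolysis of a fluorogenic O-methyl fluorescein ester substrate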
[3] = target: Beta-2 adrenergic receptor (Homo sapiens, UniProt P07550); test: beta2AR agonists driving receptor internalization, dose response, cell-based, FAP fluorogen, flow cytometry, cherry pick 1 (AID 588763); assay type: functional
Beta-2 adrenergic receptor, sequence (P07550 whole entry): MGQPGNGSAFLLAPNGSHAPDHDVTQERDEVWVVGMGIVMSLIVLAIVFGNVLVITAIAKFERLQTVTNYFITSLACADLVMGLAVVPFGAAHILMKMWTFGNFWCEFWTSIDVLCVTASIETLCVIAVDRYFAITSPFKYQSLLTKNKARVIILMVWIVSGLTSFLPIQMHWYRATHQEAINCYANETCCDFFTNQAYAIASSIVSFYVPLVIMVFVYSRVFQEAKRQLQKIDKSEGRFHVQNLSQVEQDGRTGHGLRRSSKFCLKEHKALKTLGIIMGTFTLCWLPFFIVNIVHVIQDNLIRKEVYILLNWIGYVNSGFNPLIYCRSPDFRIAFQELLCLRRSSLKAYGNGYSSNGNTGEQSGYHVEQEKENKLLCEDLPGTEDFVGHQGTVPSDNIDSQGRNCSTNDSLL

[4] = Luminescence Cell-Based Dose Retest to Confirm Inhibitors of Cancer Stem Cells. [Related pubchem assays (depositor defined):AID2717, AID2721]; assay type: functional; conditions: Homo sapiens
[5] = growth suppression of PTEN-null colon cells, dose response, cell-based, HCT116 PTEN knockout (AID 1047); assay type: functional;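 also: HCT116 colon tumor cells with PTEN knocked out; cells exposed to compound for 60 hours before readout; potency for loss of cell viability measured by luminescence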
[6] = target: T2, Microphthalmia-associated transcription factor (Homo sapiens, UniProt O75030); test: TRPM1 promoter luciferase signal decrease, dose response, MITF inhibitor project, cell-based, SK-MEL-5, cherry-picked, set 3 (AID 493073); assay type: functional
T2 sequence (O75030 whole entry): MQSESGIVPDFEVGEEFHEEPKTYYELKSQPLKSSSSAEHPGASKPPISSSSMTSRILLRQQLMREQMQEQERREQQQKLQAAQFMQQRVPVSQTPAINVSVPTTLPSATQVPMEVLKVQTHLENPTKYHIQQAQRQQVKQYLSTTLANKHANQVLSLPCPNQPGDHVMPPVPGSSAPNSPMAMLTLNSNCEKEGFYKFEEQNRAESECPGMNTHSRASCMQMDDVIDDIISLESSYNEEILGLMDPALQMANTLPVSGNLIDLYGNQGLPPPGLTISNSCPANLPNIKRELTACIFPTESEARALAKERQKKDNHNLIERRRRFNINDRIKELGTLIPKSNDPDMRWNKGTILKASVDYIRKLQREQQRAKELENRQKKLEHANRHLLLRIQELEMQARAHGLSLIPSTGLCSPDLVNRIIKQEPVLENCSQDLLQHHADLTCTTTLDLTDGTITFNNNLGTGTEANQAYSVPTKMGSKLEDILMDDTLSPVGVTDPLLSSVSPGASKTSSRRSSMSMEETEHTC

[7] = growth suppression of beta-catenin-knockout colon cells, dose response, cell-based, HCT116, human colon tumor (AID 1045); assay type: functional;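 also: HCT116 colon tumor cells with beta catenin knocked out; cells exposed to compound for 60 hours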
[8] = system: A-375; test: A375 melanoma cell viability reduction, dose response, counter-screen for MITF modulator project, cherry-pick samples, set 2 (AID 540335); assay type: functional, cell-based; conditions: Homo sapiens
[9] = system: HEK293; test: cytotoxicity in HEK293T NF-kB-Luc cells, SAR follow-up, cytotoxicity control for NF-kB activator project, cell-based, resazurin fluorescence (AID 493251); assay type: functional; conditions: Homo sapiens
[10] = cytotoxicity in HEK-293T cells, dose response, cytotoxicity control for BCR NF-kB inhibitor project, luminescence, B-cell screen hits (AID 489021); assay type: functional, cell-based;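 also: HEK-293T cells carrying an NF-kB luciferase reporter; cells exposed to compound for about 14 hours before viability readout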

T1 sequence (P49327 whole entry, the tested form may be a part): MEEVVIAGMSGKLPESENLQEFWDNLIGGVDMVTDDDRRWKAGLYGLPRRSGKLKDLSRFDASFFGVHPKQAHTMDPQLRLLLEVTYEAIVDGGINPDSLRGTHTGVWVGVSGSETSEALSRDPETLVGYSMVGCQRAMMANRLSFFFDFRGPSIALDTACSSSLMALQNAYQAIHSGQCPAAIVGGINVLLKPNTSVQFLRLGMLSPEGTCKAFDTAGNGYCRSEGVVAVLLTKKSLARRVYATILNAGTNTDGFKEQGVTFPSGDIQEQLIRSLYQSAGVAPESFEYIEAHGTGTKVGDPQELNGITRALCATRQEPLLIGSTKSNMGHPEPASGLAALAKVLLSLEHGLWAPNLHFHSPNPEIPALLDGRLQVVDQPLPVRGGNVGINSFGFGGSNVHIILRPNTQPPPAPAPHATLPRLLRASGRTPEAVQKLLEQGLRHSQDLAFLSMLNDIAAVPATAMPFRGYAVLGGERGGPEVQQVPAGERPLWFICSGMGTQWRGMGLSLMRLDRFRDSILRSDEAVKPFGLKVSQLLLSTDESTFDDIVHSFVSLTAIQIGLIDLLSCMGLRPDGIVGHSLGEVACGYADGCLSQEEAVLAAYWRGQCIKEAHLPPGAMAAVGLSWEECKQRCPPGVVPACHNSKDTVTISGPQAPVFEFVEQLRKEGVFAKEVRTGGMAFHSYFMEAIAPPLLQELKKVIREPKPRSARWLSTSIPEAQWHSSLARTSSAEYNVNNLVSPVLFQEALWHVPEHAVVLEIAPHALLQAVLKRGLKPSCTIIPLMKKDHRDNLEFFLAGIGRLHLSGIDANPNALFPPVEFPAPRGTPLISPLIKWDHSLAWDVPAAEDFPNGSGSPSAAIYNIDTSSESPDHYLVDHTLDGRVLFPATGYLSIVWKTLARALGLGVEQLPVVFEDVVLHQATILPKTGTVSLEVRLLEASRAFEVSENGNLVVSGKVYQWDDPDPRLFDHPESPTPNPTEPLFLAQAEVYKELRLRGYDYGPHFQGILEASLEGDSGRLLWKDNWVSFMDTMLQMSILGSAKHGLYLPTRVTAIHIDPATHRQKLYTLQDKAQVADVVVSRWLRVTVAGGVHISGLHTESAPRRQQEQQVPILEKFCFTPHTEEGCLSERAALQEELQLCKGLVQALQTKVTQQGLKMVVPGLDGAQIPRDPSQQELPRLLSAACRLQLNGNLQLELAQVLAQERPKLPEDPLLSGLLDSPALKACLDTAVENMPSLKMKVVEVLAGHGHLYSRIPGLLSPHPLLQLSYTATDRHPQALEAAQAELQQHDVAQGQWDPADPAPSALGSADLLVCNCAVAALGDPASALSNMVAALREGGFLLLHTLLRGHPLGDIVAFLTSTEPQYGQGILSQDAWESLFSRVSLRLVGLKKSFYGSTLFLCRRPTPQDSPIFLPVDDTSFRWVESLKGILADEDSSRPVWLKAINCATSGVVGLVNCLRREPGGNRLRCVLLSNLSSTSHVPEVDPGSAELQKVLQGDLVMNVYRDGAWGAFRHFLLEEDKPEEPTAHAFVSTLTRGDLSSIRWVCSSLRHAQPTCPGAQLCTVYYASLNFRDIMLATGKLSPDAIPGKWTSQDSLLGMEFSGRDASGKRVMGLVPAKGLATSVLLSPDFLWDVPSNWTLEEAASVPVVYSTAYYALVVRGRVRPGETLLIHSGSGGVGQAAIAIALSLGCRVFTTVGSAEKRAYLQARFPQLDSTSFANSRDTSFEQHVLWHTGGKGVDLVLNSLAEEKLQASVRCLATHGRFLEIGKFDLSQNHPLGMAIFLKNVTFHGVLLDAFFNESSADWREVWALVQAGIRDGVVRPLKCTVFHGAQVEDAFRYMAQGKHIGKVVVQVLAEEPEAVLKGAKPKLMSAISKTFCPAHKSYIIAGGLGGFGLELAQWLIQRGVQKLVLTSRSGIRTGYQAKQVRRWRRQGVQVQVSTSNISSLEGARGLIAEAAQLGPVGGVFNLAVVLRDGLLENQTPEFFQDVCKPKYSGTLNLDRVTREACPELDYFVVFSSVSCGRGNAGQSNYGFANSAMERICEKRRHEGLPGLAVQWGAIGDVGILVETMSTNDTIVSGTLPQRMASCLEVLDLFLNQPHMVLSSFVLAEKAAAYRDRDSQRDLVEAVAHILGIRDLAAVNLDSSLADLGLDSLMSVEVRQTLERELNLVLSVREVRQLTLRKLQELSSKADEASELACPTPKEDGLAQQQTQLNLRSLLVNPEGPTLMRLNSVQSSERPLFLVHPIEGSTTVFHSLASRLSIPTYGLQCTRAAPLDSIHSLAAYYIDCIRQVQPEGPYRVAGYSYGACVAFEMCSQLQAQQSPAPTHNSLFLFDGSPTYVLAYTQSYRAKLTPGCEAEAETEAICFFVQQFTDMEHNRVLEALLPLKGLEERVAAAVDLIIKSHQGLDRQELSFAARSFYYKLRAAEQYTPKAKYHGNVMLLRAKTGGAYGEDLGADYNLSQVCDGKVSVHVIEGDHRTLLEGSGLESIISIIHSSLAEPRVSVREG

SMILES: N#Cc1cc(-c2ccccc2)nc(Oc2ccc(Cl)cc2)n1
- IC50 [1]: 7.97 µM (active)
- IC50 [2]: 9.1 µM (active)
- EC50 [3]: 1.25 µM (active)

SMILES: Cc1ccc(NC2=C(Cl)C(=O)c3ccccc3C2=O)cc1
- AC50 [4]: 1.17 µM (active)
- EC50 [5]: 10.7 µM (active)
- AC50 [6]: 5.25 µM (active)
- EC50 [7]: 4.88 µM (active)
- AC50 [8]: 12.6 µM (active)

SMILES: CCc1ccc(-c2nc(CSCC(=O)NC3CC3)c(C)o2)cc1
- IC50 [9]: > 80 µM (inactive)
- IC50 [10]: > 80 µM (inactive)
